Data reported in PMC9851200, “Multiparameter phenotypic screening for endogenous TFEB and TFE3 translocation identifies novel chemical series modulating lysosome function” (Autophagy, 2022).

Key:
Type in all cases: binding
[1] = biological target: T1, kinases (KINOMEscan panel) (Homo sapiens, UniProt Q8NFD2); conditions: ANKK1; NEW KINOMEscan
T1 sequence (Q8NFD2 1-765): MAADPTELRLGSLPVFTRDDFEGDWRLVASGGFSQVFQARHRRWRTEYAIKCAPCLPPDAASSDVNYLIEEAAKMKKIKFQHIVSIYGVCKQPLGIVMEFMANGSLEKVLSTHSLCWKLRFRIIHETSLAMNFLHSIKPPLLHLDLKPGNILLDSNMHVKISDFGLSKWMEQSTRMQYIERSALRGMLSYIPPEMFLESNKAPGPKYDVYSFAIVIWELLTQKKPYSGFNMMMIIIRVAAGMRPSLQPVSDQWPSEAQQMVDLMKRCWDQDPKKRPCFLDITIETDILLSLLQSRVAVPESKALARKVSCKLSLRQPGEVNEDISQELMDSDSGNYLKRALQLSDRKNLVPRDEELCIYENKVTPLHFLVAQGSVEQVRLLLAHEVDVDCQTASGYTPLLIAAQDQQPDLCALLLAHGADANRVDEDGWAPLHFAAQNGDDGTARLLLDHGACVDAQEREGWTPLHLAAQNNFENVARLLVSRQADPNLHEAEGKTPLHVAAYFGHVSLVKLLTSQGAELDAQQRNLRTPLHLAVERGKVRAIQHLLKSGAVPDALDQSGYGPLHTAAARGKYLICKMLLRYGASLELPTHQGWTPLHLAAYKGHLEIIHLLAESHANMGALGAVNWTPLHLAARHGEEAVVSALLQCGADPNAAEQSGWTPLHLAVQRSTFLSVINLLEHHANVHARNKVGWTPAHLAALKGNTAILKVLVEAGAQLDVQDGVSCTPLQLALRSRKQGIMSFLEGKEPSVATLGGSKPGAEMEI

[2] = biological target: kinases (KINOMEscan panel) (Homo sapiens, UniProt P80192); conditions: NEW KINOMEscan
[3] = biological target: T2, kinases (KINOMEscan panel) (Homo sapiens, UniProt O14757); conditions: CHEK1; NEW KINOMEscan
T2 sequence (O14757 1-476): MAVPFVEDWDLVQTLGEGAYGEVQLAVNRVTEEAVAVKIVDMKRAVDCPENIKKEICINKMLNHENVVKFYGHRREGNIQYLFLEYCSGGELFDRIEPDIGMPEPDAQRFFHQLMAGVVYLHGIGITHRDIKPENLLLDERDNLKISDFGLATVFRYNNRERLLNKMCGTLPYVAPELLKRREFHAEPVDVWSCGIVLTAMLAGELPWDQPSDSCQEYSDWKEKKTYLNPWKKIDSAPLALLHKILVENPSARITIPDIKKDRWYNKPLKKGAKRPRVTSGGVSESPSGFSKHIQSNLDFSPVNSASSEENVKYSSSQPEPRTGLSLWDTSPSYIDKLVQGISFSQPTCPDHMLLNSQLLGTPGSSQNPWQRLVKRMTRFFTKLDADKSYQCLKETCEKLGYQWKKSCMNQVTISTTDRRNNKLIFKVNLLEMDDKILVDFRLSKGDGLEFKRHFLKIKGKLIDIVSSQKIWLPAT

[4] = biological target: kinases (KINOMEscan panel) (Homo sapiens, UniProt P17612); conditions: kinase PRKACA; NEW KINOMEscan
[5] = biological target: kinases (KINOMEscan panel) (Homo sapiens, UniProt Q9Y2H9); conditions: MAST1; NEW KINOMEscan
[6] = biological target: T3, kinases (KINOMEscan panel) (Homo sapiens, UniProt O15197); conditions: kinase EPHB6; NEW KINOMEscan
T3 sequence (O15197 32-1021): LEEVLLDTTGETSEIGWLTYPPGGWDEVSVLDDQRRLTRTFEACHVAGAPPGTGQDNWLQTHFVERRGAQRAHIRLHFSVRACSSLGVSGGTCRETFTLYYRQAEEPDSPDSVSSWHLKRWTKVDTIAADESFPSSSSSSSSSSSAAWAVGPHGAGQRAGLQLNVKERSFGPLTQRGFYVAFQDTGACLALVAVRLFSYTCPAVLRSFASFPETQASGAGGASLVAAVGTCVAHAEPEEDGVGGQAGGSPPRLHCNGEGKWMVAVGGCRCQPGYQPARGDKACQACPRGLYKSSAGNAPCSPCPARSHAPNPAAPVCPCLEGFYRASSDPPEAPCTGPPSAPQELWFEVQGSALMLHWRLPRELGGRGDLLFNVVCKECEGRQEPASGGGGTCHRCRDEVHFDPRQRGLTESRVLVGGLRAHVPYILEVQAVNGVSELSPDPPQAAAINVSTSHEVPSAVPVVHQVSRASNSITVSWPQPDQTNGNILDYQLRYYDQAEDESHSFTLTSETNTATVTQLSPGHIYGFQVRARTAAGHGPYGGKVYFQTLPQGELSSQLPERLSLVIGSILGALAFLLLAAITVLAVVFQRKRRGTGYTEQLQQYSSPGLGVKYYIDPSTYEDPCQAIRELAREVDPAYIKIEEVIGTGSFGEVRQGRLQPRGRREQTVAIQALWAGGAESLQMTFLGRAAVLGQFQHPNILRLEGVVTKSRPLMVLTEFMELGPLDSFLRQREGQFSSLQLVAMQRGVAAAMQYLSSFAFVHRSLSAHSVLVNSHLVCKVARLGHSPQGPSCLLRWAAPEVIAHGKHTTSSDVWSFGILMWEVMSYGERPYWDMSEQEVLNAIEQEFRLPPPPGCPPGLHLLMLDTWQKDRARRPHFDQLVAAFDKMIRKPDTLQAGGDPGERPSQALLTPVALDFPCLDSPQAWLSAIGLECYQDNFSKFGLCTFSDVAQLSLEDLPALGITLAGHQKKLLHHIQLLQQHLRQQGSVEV

[7] = biological target: kinases (KINOMEscan panel) (Homo sapiens, UniProt Q9P2K8, S808G)
[8] = biological target: kinases (KINOMEscan panel) (Homo sapiens, UniProt Q13177); conditions: PAK2; NEW KINOMEscan
Sequence of kinases (KINOMEscan panel) (Homo sapiens, UniProt Q13177) (Q13177 whole entry): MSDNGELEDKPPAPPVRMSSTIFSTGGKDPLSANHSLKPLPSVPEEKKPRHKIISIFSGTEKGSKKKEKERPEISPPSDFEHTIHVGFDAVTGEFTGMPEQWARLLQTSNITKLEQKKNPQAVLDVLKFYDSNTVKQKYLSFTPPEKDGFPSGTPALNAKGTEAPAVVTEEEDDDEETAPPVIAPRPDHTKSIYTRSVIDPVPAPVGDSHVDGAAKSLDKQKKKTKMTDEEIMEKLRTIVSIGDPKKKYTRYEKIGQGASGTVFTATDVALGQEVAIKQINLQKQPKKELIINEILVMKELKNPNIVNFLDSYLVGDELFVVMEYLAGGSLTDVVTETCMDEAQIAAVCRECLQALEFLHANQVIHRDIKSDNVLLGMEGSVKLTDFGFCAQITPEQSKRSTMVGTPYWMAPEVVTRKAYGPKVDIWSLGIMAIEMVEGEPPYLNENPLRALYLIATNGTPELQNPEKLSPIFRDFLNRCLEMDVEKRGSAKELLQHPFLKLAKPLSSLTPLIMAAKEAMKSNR

Sequence of kinases (KINOMEscan panel) (Homo sapiens, UniProt Q9Y2H9) (Q9Y2H9 whole entry): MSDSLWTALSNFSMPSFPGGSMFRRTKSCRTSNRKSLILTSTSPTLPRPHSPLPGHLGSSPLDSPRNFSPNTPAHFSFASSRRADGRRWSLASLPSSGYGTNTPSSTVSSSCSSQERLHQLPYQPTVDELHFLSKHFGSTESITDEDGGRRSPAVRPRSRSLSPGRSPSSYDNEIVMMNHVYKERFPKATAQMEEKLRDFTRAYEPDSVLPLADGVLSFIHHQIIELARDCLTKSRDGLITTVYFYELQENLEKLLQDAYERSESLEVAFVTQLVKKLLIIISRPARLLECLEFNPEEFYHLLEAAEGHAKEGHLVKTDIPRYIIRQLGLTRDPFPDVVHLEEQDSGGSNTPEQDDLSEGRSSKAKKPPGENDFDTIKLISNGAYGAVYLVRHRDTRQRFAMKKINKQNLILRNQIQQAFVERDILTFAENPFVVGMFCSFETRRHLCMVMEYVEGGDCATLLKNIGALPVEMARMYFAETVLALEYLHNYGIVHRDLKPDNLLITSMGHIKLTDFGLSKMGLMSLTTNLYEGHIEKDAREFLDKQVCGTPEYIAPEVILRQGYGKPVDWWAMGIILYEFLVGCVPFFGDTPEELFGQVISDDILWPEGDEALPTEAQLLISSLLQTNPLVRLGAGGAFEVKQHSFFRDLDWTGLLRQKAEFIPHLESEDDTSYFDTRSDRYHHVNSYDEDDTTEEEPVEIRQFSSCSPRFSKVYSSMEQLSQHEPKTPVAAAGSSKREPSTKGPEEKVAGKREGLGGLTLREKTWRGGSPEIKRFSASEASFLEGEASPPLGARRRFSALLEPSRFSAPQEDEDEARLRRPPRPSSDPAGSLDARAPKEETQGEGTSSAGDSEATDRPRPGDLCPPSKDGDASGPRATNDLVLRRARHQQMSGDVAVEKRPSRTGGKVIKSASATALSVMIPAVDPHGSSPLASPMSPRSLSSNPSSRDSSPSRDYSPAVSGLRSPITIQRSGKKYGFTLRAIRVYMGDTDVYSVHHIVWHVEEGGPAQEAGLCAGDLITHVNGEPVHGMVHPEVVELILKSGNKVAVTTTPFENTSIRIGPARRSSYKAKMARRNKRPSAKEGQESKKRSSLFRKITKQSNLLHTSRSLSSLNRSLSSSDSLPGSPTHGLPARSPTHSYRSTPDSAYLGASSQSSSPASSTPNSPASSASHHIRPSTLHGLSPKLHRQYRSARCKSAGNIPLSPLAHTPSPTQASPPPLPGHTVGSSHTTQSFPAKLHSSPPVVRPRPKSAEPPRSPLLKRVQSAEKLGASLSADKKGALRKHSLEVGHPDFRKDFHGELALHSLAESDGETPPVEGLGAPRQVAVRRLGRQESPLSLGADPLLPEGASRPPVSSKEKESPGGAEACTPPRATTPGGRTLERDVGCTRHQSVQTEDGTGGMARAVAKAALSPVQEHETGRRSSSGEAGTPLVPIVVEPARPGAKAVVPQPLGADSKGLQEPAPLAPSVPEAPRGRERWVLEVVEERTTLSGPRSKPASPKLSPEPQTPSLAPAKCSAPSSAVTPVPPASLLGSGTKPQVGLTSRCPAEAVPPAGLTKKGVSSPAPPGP
Sequence of kinases (KINOMEscan panel) (Homo sapiens, UniProt Q9P2K8, S808G) (Q9P2K8 whole entry S808G): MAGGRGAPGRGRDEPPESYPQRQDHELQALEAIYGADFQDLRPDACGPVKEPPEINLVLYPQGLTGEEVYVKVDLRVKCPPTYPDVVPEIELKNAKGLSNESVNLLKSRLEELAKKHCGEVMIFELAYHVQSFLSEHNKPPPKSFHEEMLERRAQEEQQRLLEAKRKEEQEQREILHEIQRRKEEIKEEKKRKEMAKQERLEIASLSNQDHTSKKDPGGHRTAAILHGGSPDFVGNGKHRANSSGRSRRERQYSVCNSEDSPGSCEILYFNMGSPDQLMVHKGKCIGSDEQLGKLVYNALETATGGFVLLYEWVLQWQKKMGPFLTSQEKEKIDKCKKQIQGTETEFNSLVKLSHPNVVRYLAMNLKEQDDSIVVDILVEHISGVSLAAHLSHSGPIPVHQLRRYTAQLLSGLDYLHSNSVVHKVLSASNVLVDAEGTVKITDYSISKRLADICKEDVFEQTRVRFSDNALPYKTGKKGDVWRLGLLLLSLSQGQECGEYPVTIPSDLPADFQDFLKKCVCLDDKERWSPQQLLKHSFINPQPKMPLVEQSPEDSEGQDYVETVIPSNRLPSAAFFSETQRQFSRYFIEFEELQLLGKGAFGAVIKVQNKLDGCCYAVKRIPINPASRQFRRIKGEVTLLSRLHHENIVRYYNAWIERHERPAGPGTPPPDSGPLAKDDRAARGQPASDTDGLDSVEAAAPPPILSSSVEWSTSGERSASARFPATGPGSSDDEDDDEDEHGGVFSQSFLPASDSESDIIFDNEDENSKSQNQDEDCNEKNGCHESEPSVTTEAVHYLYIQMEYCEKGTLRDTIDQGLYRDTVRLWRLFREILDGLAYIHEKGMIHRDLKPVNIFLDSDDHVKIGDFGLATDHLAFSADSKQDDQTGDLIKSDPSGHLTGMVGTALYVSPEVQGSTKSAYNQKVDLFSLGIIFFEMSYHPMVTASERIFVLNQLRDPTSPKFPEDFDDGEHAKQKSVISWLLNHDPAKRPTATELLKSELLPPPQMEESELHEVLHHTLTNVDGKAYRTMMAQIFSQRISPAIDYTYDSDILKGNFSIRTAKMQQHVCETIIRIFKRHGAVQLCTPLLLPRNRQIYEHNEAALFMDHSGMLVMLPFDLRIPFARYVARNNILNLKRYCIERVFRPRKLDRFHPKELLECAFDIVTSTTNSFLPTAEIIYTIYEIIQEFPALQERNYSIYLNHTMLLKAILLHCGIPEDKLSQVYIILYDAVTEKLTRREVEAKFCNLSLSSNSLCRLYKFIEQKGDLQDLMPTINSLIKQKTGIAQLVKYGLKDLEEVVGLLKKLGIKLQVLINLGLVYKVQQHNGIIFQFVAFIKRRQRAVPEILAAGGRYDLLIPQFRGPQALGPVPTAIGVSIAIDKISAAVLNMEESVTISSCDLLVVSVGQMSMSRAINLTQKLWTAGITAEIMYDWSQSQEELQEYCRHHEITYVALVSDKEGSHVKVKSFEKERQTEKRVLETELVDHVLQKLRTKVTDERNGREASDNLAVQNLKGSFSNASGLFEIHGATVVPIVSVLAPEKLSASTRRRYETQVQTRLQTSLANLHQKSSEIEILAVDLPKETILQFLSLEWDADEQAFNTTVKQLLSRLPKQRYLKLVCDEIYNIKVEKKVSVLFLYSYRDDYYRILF
Sequence of kinases (KINOMEscan panel) (Homo sapiens, UniProt P80192) (P80192 whole entry): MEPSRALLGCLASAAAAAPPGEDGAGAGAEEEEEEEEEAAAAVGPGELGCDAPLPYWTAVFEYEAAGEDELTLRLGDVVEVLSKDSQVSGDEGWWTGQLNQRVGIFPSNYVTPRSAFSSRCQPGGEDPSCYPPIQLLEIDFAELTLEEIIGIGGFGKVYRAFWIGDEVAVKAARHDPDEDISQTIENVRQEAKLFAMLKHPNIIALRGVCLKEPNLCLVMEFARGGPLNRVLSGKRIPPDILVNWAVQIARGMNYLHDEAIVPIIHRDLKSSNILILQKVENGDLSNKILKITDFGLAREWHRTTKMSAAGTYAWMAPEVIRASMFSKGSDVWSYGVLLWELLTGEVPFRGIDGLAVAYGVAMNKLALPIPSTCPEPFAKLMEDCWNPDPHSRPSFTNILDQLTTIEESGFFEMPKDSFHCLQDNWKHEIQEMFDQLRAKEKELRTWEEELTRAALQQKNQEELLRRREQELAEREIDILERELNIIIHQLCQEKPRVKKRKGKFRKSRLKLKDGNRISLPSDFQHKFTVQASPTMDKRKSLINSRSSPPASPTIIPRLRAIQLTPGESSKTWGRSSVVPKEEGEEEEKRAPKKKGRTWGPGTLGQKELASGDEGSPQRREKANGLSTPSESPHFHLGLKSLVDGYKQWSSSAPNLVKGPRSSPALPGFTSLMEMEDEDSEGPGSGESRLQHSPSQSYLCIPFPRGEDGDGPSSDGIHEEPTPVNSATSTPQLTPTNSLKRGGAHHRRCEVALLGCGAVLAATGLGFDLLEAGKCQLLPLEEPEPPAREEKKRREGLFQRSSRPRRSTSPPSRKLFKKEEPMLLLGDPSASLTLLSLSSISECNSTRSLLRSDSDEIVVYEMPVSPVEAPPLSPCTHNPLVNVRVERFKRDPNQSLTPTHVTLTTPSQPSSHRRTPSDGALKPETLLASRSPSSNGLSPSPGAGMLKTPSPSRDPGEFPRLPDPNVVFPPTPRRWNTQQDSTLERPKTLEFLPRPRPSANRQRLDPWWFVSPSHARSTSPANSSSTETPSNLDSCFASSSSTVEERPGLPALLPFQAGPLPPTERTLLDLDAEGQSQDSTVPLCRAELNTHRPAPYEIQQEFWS

| SMILES | KINOMEscan ANKK1 [1] | KINOMEscan MAP3K9 [2] | KINOMEscan CHEK1 [3] | KINOMEscan PRKACA [4] | KINOMEscan MAST1 [5] | KINOMEscan EPHB6 [6] | KINOMEscan EIF2AK4/GCN2(Kin.Dom.2,S808G) [7] | KINOMEscan PAK2 [8] |
| --- | --- | --- | --- | --- | --- | --- | --- | --- |
| Cc1cccc(-c2nc(Nc3ccc4nn(C)cc4c3)c3ccccc3n2)n1 [NK167] | 0 | 11 | 2 | 12 | 0 | 0 | 38 | 0 |
| Cc1cccc(-c2nc(N(C)c3ccc4ncsc4c3)c3ccccc3n2)n1 [NK-161] | 0 | 27 | 3 | 17 | 0 | 0 | 53 | 0 |
